The record followed here is patent US20060189602A1, “Pyridazinone compounds” (Anadys Pharmaceuticals, Inc., priority 2004, published 2006).

Some results are limits rather than exact numbers.

For this assay, the target named is HCV NS5B polymerase (Hepatitis C virus genotype 1b, UniProt P26663). Description: NS5B Polymerase Inhibition Assay. The class given is biochemical. As to conditions: 50 nM enzyme, [α-33P]GTP, oligo (rG13)/poly rC, 75 min at 28° C. On the procedure:
NS5B Polymerase Inhibition Assay
Compounds were tested for HCV polymerase inhibition. Assays were performed in a 96-well streptavidin-coated FlashPlate using 50 nM enzyme, 0.5 μCi of [α-^33P]GTP, 0.63 μM GTP, and 250 nM 5′biotinylated oligo (rG13)/poly rC in 20 mM Tris-HCl, pH 7.5, 5 mM MgCl2, 20 mM NaCl, 5 mM dithiothreitol, and 0.1 g/L BSA. The reaction was stopped by aspiration after 75 min at 28° C. and the plate was washed several times. After washing, incorporated radioactivity was counted using a Microbeta scintillation counter.

HCV NS5B polymerase, sequence (P26663 2420-3010): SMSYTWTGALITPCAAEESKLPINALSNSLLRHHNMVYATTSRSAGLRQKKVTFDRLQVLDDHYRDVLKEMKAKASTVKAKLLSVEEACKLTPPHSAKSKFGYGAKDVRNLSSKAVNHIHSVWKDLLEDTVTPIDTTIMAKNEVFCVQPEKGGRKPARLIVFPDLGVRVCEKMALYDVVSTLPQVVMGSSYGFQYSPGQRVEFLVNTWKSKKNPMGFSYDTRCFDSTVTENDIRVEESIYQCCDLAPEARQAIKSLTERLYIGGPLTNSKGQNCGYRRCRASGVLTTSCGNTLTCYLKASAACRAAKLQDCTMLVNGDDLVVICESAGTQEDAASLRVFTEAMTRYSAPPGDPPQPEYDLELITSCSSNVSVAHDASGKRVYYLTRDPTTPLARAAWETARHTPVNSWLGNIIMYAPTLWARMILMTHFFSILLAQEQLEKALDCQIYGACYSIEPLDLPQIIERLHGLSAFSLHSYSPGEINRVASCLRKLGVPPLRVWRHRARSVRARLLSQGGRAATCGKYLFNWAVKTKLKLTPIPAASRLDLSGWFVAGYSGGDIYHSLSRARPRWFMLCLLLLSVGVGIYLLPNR

What is called IC50 is the concentration at which inhibition is half-maximal. For `CCCCc1nn(CCC(C)C)c(=O)c(C2=Nc3ccc(OC)cc3S(=O)(=O)N2)c1O` [Compound 35, 6-Butyl-5-hydroxy-4-(7-methoxy-1,1-dioxo-1,2-dihdyro-1λ^6-ben-zo[1,2,4]thiadiazin-3-yl)-2-(3-methyl-butyl)-2H-pyridazin-3-one], the IC50 was under 10 µM.
For `CCCCc1nn(CCC(C)C)c(=O)c(C2=Nc3ccc(O)cc3S(=O)(=O)N2)c1O` [Compound 36, 6-Butyl-5-hydroxy-4-(7-hydroxy-1,1-dioxo-1,2-dihydro-1λ^6-ben-zo[1,2,4]thiadiazin-3-yl)-2-(3-methyl-butyl)-2H-pyridazin-3-one], the IC50 is under 10 µM.
Under `CCCCn1nc(CCC(C)C)c(O)c(C2=Nc3ccc(O)cc3S(=O)(=O)N2)c1=O` [Compound 38, 2-Butyl-5-hydroxy-4-(7-hydroxy-1,1-dioxo-1,2-dihydro-1λ^6-ben-zo[1,2,4]thiadiazin-3-yl)-6-(3-methyl-butyl)-2H-pyridazin-3-one] stands under 10 µM; under `CCCCn1nc(CCC(C)C)c(O)c(C2=Nc3ccc(OCC(N)=O)cc3S(=O)(=O)N2)c1=O` [Compound 39, 2-{3-[2-Butyl-5-hydroxy-6-(3-methyl-butyl)-3-oxo-2,3-di-hydro-pyridazin-4-yl]-1,1-dioxo-1,2-dihydro-1λ^6-ben-zo[1,2,4]thiadiazin-7-yloxy}-acetamide], under 10 µM; under `CCCCc1nn(CCCC)c(=O)c(C2=Nc3ccc(OC)cc3S(=O)(=O)N2)c1O` [Compound 40, 2,6-Dibutyl-5-hydroxy-4-(7-methoxy-1,1-dioxo-1,2-dihydro-1λ^6-ben-zo[1,2,4]thiadiazin-3-yl)-2H-pyridazin-3-one], 10 to 50 µM.
Regarding `CC(C)c1nn(Cc2ccccc2)c(=O)c(C2=Nc3ccccc3S(=O)(=O)N2)c1O` [Compound 41, 2-Benzyl-4-(1,1-dioxo-1,2-dihydro-1λ^6-ben-zo[1,2,4]thiadiazin-3-yl)-5-hydroxy-6-isopropyl-2H-py-ridazin-3-one], the IC50 lay in the range of 10 to 50 µM.
In the case of `CCCc1nn(CCC(C)C)c(=O)c(C2=Nc3ccc(OC)cc3S(=O)(=O)N2)c1O` [Compound 42, 5-Hydroxy-4-(7-methoxy-1,1-dioxo-1,2-dihydro-1λ^6-ben-zo[1,2,4]thiadiazin-3-yl)-2-(3-methyl-butyl)-6-propyl-2H-py-ridazin-3-one] it was under 10 µM; in that of `CCCCc1nn(CCCC)c(=O)c(C2=Nc3ccc(O)cc3S(=O)(=O)N2)c1O` [Compound 45, 2,6-Dibutyl-5-hydroxy-4-(7-hydroxy-1,1-dioxo-1,2-dihydro-1λ^6-ben-zo[1,2,4]thiadiazin-3-yl)-2H-pyridazin-3-one], under 10 µM; in that of `CCCc1nn(CCC(C)C)c(=O)c(C2=Nc3ccc(O)cc3S(=O)(=O)N2)c1O` [Compound 46, 5-Hydroxy-4-(7-hydroxy-1,1-dioxo-1,2-dihydro-1λ^6-ben-zo[1,2,4]thiadiazin-3-yl)-2-(3-methyl-butyl)-6-propyl-2H-py-ridazin-3-one], under 10 µM.
In turn, `CCCCc1nn(CCCC)c(=O)c(C2=Nc3ccc(OCC(N)=O)cc3S(=O)(=O)N2)c1O` [Compound 47, 2-[3-(2,6-Dibutyl-5-hydroxy-3-oxo-2,3-dihydro-pyridazin-4-yl)-1,1-di-oxo-1,2-dihydro-1λ^6-benzo[1,2,4]thiadiazin-7-yl-oxy]-acetamide] gave an IC50 of under 10 µM.
In the case of `CCCc1nn(CCC(C)C)c(=O)c(C2=NS(=O)(=O)c3cc(OCC(N)=O)ccc3N2)c1O` [Compound 49, 2-{3-[5-Hydroxy-2-(3-methyl-butyl)-3-oxo-6-propyl-2,3-di-hydro-pyridazin-4-yl]-1,1-dioxo-1,2-dihydro-1λ^6-ben-zo[1,2,4]thiadiazin-7-yloxy}-acetamide] it was under 10 µM; in that of `CC(C)CCn1nc(-c2cccs2)c(O)c(C2=NS(=O)(=O)c3sc(Cl)cc3N2)c1=O` [Compound 50, 4-(2-Chloro-7,7-dioxo-4,7-dihydro-1,7λ^6-dithia-4,6-diaza-inden-5-yl)-5-hydroxy-2-(3-methyl-butyl)-6-thiophen-2-yl-2H-py-ridazin-3-one], 10 to 50 µM; in that of `CC(C)CCc1nn(CCC(C)C)c(=O)c(C2=NS(=O)(=O)c3cc(OCC(N)=O)ccc3N2)c1O` [Compound 51, 2-{3-[5-Hydroxy-2,6-bis-(3-methyl-butyl)-3-oxo-2,3-dihydro-py-ridazin-4-yl]-1,1-dioxo-1,2-dihydro-1λ^6-ben-zo[1,2,4]thiadiazin-7-yloxy}-acetamide], under 10 µM.
Under `CC(C)c1nn(CCC(C)(C)C)c(=O)c(C2=Nc3ccccc3S(=O)(=O)N2)c1O` [Compound 53, 2-(3,3-Dimethyl-butyl)-4-(1,1-dioxo-1,2-dihydro-1λ^6-ben-zo[1,2,4]thiadiazin-3-yl)-5-hydroxy-6-isopropyl-2H-py-ridazin-3-one] stands under 10 µM.
Under `COc1ccc2c(c1)S(=O)(=O)NC(c1c(O)c(-c3nccs3)nn(CCC(C)C)c1=O)=N2` [Compound 54, 5-Hydroxy-4-(7-methoxy-1,1-dioxo-1,2-dihydro-1λ^6-ben-zo[1,2,4]thiadiazin-3-yl)-2-(3-methyl-butyl)-6-thiazol-2-yl-2H-py-ridazin-3-one] stands under 10 µM.
Consider `COc1ccc2c(c1)S(=O)(=O)NC(c1c(O)c(-c3cccs3)nn(CCC(C)(C)C)c1=O)=N2` [Compound 56, 2-(3,3-Dimethyl-butyl)-5-hydroxy-4-(7-methoxy-1,1-dioxo-1,2-di-hydro-1λ^6-benzo[1,2,4]thiadiazin-3-yl)-6-thiophen-2-yl-2H-py-ridazin-3-one], for which the IC50 was under 10 µM.
Under `CC(C)c1nn(CCC2CC2)c(=O)c(C2=Nc3ccccc3S(=O)(=O)N2)c1O` [Compound 57, 2-(2-Cyclopropyl-ethyl)-4-(1,1-dioxo-1,2-dihydro-1λ^6-ben-zo[1,2,4]thiadiazin-3-yl)-5-hydroxy-6-isopropyl-2H-py-ridazin-3-one] stands under 10 µM; under `COc1ccc2c(c1)S(=O)(=O)NC(c1c(O)c(CCC#N)nn(CCC(C)(C)C)c1=O)=N2` [Compound 58, 3-[1-(3,3-Dimethyl-butyl)-4-hydroxy-5-(7-methoxy-1,1-dioxo-1,2-di-hydro-1λ^6-benzo[1,2,4]thiadiazin-3-yl)-6-oxo-1,6-di-hydro-pyridazin-3-yl]-propionitrile], 10 to 50 µM.
Under `Cc1ccc(-c2nn(Cc3ccccc3)c(=O)c(C3=Nc4ccccc4S(=O)(=O)N3)c2O)s1` [Compound 59, 2-Benzyl-4-(1,1-dioxo-1,2-dihydro-1λ^6-ben-zo[1,2,4]thiadiazin-3-yl)-5-hydroxy-6-(5-methyl-thiophen-2-yl)-2H-py-ridazin-3-one] stands under 10 µM.
With `COc1ccc2c(c1)S(=O)(=O)NC(c1c(O)c(-c3sccc3C)nn(CCC(C)C)c1=O)=N2` [Compound 61, 5-Hydroxy-4-(7-methoxy-1,1-dioxo-1,2-dihydro-1λ^6-ben-zo[1,2,4]thiadiazin-3-yl)-2-(3-methyl-butyl)-6-(3-methyl-thio-phen-2-yl)-2H-pyridazin-3-one], the IC50 is under 10 µM.
For `CC(C)c1nn(CC2CCC2)c(=O)c(C2=Nc3ccccc3S(=O)(=O)N2)c1O` [Compound 63, 2-Cyclobutylmethyl-4-(1,1-dioxo-1,2-dihydro-1λ^6-ben-zo[1,2,4]thiadiazin-3-yl)-5-hydroxy-6-isopropyl-2H-py-ridazin-3-one], the 50% inhibitory concentration (IC50) was in the range of 10 to 50 µM.
